Results on one compound are retold here after patent publication US8969333B2, “Therapeutic compositions and methods” (The Penn State Research Foundation, priority 2010, dated 2015).

Structures are written as SMILES.

Experiment [1] deals with S180 cells. Description: MTT assay of S180 cell growth inhibition. Format: cell-based. Conditions: Mus musculus, S-180. The protocol: Cells were treated with individual compounds at different concentrations for 72 hr in 24-well plates. MTT reagent was added to a final concentration of 0.5 mg/ml and further incubated for 4 hr. The yellow-colored MTT was reduced to insoluble purple-colored Formazan in living cells. Culture medium was removed and DMSO was added to dissolve Formazan into solution. The absorbance of the solution was then measured at 570 nm using a Thermo BioMate™ 3 spectrophotometer.
(In general: Formazan colour is commonly taken as a measure of viable cells.)

Experiment [2] has as its system U2OS p53-shRNA cells. The experiment is described as follows: MTT assay of U2OS cells with or without p53 depletion by shRNA. Format: cell-based, human. Conditions: same inhibitor concentration, p<0.02. The protocol: MTT assays are performed in U2OS cells with or without p53 depletion to analyze the role of p53 in YW3-56 mediated cell growth inhibition and autophagy.
(§1) U2OS and S-180 cells were cultured in Dulbecco modified Eagle medium (DMEM) supplemented with 10% fetal bovine serum and 1% penicillin-streptomycin in a 5% CO2 incubator. U2OS p53-shRNA and U2OS Ctrl-shRNA cells were generated as described in Li, P. et al., Regulation of p53 target gene expression by peptidylarginine deiminase 4. Mol Cell Bial 28 (15), 4745-4758 (2008). Concentrations and duration of YW3-56 treatment were performed as specified in the figures and text. For starvation assay, U2OS cells were first cultured in serum-free DMEM for 16 hr, 10% fetal bovine serum and different concentrations of YW3-56 was then added back and cells were further incubated for 8 hr before further analyses. SESN2 siRNA (Santa Cruz) and GFP siRNA (Dharmacon Inc.) were transfected into U2OS cells using the XtremeGene siRNA transfection reagents (Roche Inc.). Cells were incubated in the presence of the siRNA for 48 hr before adding YW3-56 and further incubated for 8 hr before analyses.

Experiment [3] has as its system p53 and its target genes. Description: RT-qPCR of p53 and its target gene mRNA in liver and spleen of treated nude mice. Format: in vivo, mouse. To be noted: YW3-56 10 mg/kg, 3 months. As for the experimental part: (§2) RNA was extracted using RNeasy Mini Kit (Qiagen) per manufacturer's instructions. 1 μg RNA was reverse transcribed into cDNA using qScript cDNA SuperMix (Quanta Biosciences) per manufacturer's instructions. Quantitative PCR was performed using SYBR Green SuperMix (Quanta Biosciences) in StepOnePlus Real-Time PCR System (Applied Biosystems). FIG. 10 is a graph showing p53 and its target gene expression induced in S180 cells by YW3-56 in a concentration dependent manner.
Expression of p53 and its target genes in mouse liver and spleen after YW3-56 injection at 10 mg/kg body weight once every two days for 3 months.
FIGS. 11a and 11b show results of the effect of long term YW3-56 treatment in mice. A pair of nude mice is mock injected or injected with YW3-56 for three months. RT-qPCR analyses of p53 and its target gene mRNA levels in control and YW3-56 treated mice. […] However, these changes are at low levels and no clear change in liver weight and morphology is observed.
Background: Real-time PCR tracks product formation cycle by cycle.

Experiment [4] deals with p53 and its target genes. Description: RT-qPCR and Western blot of p53 and its target genes in U2OS cells. Format: cell-based, human. The protocol:
Western blot and immunostaining was performed essentially as described in Li, P. et al., Oncogene 29 (21), 3153-3162 (2010). Antibodies used in Western blot were anti-p53 (Sigma), anti-PAD4, anti-p21 (Sigma), anti-PUMA (Calbiochem), anti-SESN2 (Abeam), anti-p70S6K (Cell Signaling), anti-p70S6K-pT389 (Cell Signaling), anti-LC3 (Cell Signaling) and anti-β-actin (Sigma) at appropriate dilutions. Anti-LC3B antibody (Cell Signaling) was used for immunostaining. DNA was stained by the DNA dye Hoechst.
as §2, §1
The relative abundance of each gene is compared with β-actin as a reference. Increase in several p53 target genes, such as p21, GADD45, PUMA, OKL38, DRAM, and Sestrin2, is detected after YW3-88 treatment at 12 μM concentration. […] Increase in p21 and PUMA proteins is detected.

Experiment [5] concerns p53 and its target genes. Description: RT-qPCR of p53 and its target genes in S180 cells. It counts as cell-based, mouse. Conditions: concentration dependent. The protocol: as §2
Experiment [6] concerns S180 tumor. The experiment is described as follows: Sarcoma S180 cell-derived mouse tumor model. To be noted: YW3-56 10 mg/kg i.p. daily for 1 week. It counts as in vivo. The source says: A well-established sarcoma S180 cell-derived mouse tumor model is used in this example to determine the effects of PAD4 inhibitors of the present invention on tumor growth in mice.
S180 ascites tumor cells were used to form solid tumors after subcutaneous injection essentially as described in Wang, W. et al., Mol. Biosyst., 2011, 7:766-772. In brief, for initiation of subcutaneous tumors, the cells were obtained as an ascitic form from the tumor-bearing mice, which were serially transplanted once per week. Subcutaneous tumors were implanted by injecting 0.2 ml of 0.9% saline containing 1×10^7 viable tumor cells under the skin on the right armpit. 24 hr after implantation, male ICR mice were randomly divided into experimental groups. The mice in the positive control group were given a daily i.p injection of 2 mg/kg of doxorubicin in 0.2 ml of 0.9% saline for 7 consecutive days. The mice in the negative control group were given a daily i.p injection of 0.2 ml of 0.9% saline for 7 consecutive days. The mice in the treatment groups were given a daily i.p injection of YW3-56 (10 mg/kg), SAHA (5 mg/kg), or a combination of YW3-56 (5 mg/kg) and SAHA (2.5 mg/kg) for 7 consecutive days. The weights of the mice were recorded every day. 24 hr after the last administration, all mice were weighed, euthanized and immediately dissected to obtain and weigh the tumor and vital organs.

What is called IC50 is the point on the concentration scale where inhibition reaches its midpoint. Read a high IC50 as weaker potency in that assay.

In turn, `CN(C)c1ccc2cc(C(=O)N[C@@H](CCCNC(=N)CCl)C(=O)NCc3ccccc3)ccc2c1` [YW3-56] yielded an IC50 in experiment [1] of 10 to 15 µM. In addition, in experiment [2], the “efficacy on cell growth inhibition after p53 depletion” value was “decreased significantly”. For the same compound, in experiment [3] (decrease), the “OKL38 mRNA change in liver” value was roughly 2 fold and the “PUMA mRNA change in liver” value is reported as roughly 2 fold. Besides, in experiment [3] (increase), the “p21 mRNA change in liver” value is recorded as roughly 2 fold and the “p53 mRNA change in liver” value is recorded as roughly 2 fold. The “changes in gene expression in spleen” value in experiment [3] (2-fold expression change as cut off) was “not detected”. Besides, in experiment [4] (U2OS cells), the “DRAM mRNA” value is given as “not altered”. For the same compound, in experiment [4] (U2OS cells with or without p53 depletion), the p70S6K phosphorylation result was “inhibited”. In addition, in experiment [4] (U2OS cells, concentration dependent), the “sestrin1 and 2 mRNA and Sestrin2 protein levels” value is “significantly increased”. Besides, the “expression of p53 and its target genes including SESN1 and SESN2” value in experiment [5] was “induced the expression”. The “growth of S180 tumor relative to control group” value in experiment [6] was roughly 51.5%.
